molecular target: human APJ receptor (Homo sapiens (Human), UniProt P35414); test: [35S]GTPγS binding assay on membranes from CHO cells stably expressing human APJ receptor; type: biochemical; details: read-out: Activity hAPJ SPA EC50 IP
Description: The human APJ receptor was cloned by polymerase chain reaction and the gene encoding the receptor was subcloned in pFLAG-CMV™-3 expression vector (Sigma, Saint Louis, Mo. USA) in-house at Amgen. A GTPγS binding assay was performed on membranes prepared from CHO cells stably expressing human APJ receptor. The optimum experimental conditions for the concentrations of GDP, MgCl2, and NaCl in the assay buffer were initially determined. The assay was performed in assay buffer [20 mM HEPES, pH 7.5, 5 mM MgCl2, and 0.1% (w/v) BSA with 200 mM NaCl, 3 μM GDP] and membranes expressing human APJ receptor/well along with WGA PS beads. The reaction was initiated by addition of 0.2 nM [^35S]GTPγS (Perkin Elmer Life and Analytical Sciences, Waltham USA) in the absence or presence of various ligands and incubated at RT for 90 min. Nonspecific binding was determined in the presence of 100 μM GTPγS and was always less than 0.2% of total binding. All the results presented are means of several independent experiments and analyzed by non-linear regression methods using commercially available program Prism (GraphPad, San Diego, Calif.) to obtain EC50 detailed in Table 38.

Chain of human APJ receptor (P35414 whole entry): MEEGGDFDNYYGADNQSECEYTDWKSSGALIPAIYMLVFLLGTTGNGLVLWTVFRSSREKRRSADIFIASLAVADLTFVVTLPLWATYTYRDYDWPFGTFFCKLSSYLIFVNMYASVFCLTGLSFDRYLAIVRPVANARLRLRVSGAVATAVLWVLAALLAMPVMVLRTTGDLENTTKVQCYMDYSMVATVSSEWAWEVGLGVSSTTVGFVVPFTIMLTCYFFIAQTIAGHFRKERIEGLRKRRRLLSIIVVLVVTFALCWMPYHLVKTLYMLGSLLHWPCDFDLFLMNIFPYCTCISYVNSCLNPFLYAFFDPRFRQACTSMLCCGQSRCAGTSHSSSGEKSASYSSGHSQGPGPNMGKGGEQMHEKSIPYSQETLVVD

In order of rising EC50:
1. COc1cccc(OC)c1-n1c(NS(=O)(=O)[C@@H](C)[C@H](C)c2ncc(Cl)cn2)nnc1[C@H]1CCO1 (mixture of isomers) [Example 142.0, (2S,3R)-3-(5-chloropyrimidin-2-yl)-N-(4-(2,6-dimethoxyphenyl)-5-((R)-oxetan-2-yl)-4H-1,2,4-triazol-3-yl)butane-2-sulfonamide and (2S,3R)-3-(5-chloropyrimidin-2-yl)-N-(4-(2,6-dimethoxyphenyl)-5-((S)-oxetan-2-yl)-4H-1,2,4-triazol-3-yl)butane-2-sulfonamide]  1.9 nM
2. COc1cccc(OC)c1-n1c(NS(=O)(=O)[C@@H](C)[C@H](C)c2ncc(C)cn2)nnc1[C@H]1CCCO1 (mixture of isomers) [Example 48.0, (2S,3R)-N-(4-(2,6-dimethoxyphenyl)-5-((R)-tetrahydrofuran-2-yl)-4H-1,2,4-triazol-3-yl)-3-(5-methylpyrimidin-2-yl)butane-2-sulfonamide and (2S,3R)-N-(4-(2,6-dimethoxyphenyl)-5-((S)-tetrahydrofuran-2-yl)-4H-1,2,4-triazol-3-yl)-3-(5-methylpyrimidin-2-yl)butane-2-sulfonamide]  3.9 nM
3. COc1cccc(OC)c1-n1c(NS(=O)(=O)[C@@H](C)[C@H](C)c2ncc(C#N)cn2)nnc1[C@@H]1CCCO1 (single isomer, unassigned) [Example 24.0, (2S,3R)-3-(5-Cyano-2-pyrimidinyl)-N-(4-(2,6-dimethoxyphenyl)-5-((2S)-tetrahydro-2-furanyl)-4H-1,2,4-triazol-3-yl)-2-butanesulfonamide or (2S,3R)-3-(5-cyano-2-pyrimidinyl)-N-(4-(2,6-dimethoxyphenyl)-5-((2R)-tetrahydro-2-furanyl)-4H-1,2,4-triazol-3-yl)-2-butanesulfonamide]  4.5 nM
4. COc1cccc(OC)c1-n1c(NS(=O)(=O)[C@@H](C)[C@H](C)c2ncc(Cl)cn2)nnc1[C@@H]1COCCO1 (single isomer, unassigned) [Example 39.0, (2S,3R)-3-(5-chloro-2-pyrimidinyl)-N-(4-(2,6-dimethoxyphenyl)-5-((2R)-1,4-dioxan-2-yl)-4H-1,2,4-triazol-3-yl)-2-butanesulfonamide or (2S,3R)-3-(5-chloro-2-pyrimidinyl)-N-(4-(2,6-dimethoxyphenyl)-5-((2S)-1,4-dioxan-2-yl)-4H-1,2,4-triazol-3-yl)-2-butanesulfonamide]  5.3 nM
5. COc1ncnc(OC)c1-n1c(NS(=O)(=O)[C@@H](C)[C@H](C)c2ccc(Cl)cn2)nnc1[C@@H]1CCOC1 (single isomer, unassigned) [Example 37.0, (2S,3R)-3-(5-chloro-2-pyridinyl)-N-(4-(4,6-dimethoxy-5-pyrimidinyl)-5-((3S)-tetrahydro-3-furanyl)-4H-1,2,4-triazol-3-yl)-2-butanesulfonamide or (2S,3R)-3-(5-chloro-2-pyridinyl)-N-(4-(4,6-dimethoxy-5-pyrimidinyl)-5-((3R)-tetrahydro-3-furanyl)-4H-1,2,4-triazol-3-yl)-2-butanesulfonamide]  12 nM
6. COc1ncnc(OC)c1-n1c(NS(=O)(=O)[C@@H](C)[C@H](C)c2ccc(Cl)cn2)nnc1[C@H]1CCOC1 (single isomer, unassigned) [Example 38.0, (2S,3R)-3-(5-chloro-2-pyridinyl)-N-(4-(4,6-dimethoxy-5-pyrimidinyl)-5-((3R)-tetrahydro-3-furanyl)-4H-1,2,4-triazol-3-yl)-2-butanesulfonamide or (2S,3R)-3-(5-chloro-2-pyridinyl)-N-(4-(4,6-dimethoxy-5-pyrimidinyl)-5-((3S)-tetrahydro-3-furanyl)-4H-1,2,4-triazol-3-yl)-2-butanesulfonamide]  19 nM
7. COc1cccc(OC)c1-n1c(NS(=O)(=O)CCc2ncc(Cl)cn2)nnc1[C@@H]1COCCO1 (mixture of isomers) [Example 387.0, 2-(5-chloro-2-pyrimidinyl)-N-(4-(2,6-dimethoxyphenyl)-5-((2R)-1,4-dioxan-2-yl)-4H-1,2,4-triazol-3-yl)ethanesulfonamide and 2-(5-chloro-2-pyrimidinyl)-N-(4-(2,6-dimethoxyphenyl)-5-((2S)-1,4-dioxan-2-yl)-4H-1,2,4-triazol-3-yl)ethanesulfonamide]  48 nM
8. COc1cccc(OC)c1-n1c(NS(=O)(=O)CCc2ccc(Cl)cc2)nnc1[C@@H]1CCCO1 (racemic) [Example 143.0, (S)-2-(4-Chlorophenyl)-N-(4-(2,6-dimethoxyphenyl)-5-(tetrahydrofuran-2-yl)-4H-1,2,4-triazol-3-yl)ethanesulfonamide and (R)-2-(4-chlorophenyl)-N-(4-(2,6-dimethoxyphenyl)-5-(tetrahydrofuran-2-yl)-4H-1,2,4-triazol-3-yl)ethanesulfonamide]  120 nM
9. COCC1(n2c(NS(=O)(=O)[C@@H](C)[C@H](OC)c3ncc(Cl)cn3)nnc2[C@H]2COCCO2)CC1 (mixture of isomers) [Example 304.0, (1R,2S)-N-(5-((S)-1,4-dioxan-2-yl)-4-(1-(methoxymethyl)cyclopropyl)-4H-1,2,4-triazol-3-yl)-1-(5-chloropyrimidin-2-yl)-1-methoxypropane-2-sulfonamide and (1R,2S)-N-(5-((R)-1,4-dioxan-2-yl)-4-(1-(methoxymethyl)cyclopropyl)-4H-1,2,4-triazol-3-yl)-1-(5-chloropyrimidin-2-yl)-1-methoxypropane-2-sulfonamide]  210 nM
10. COc1cccc(OC)c1-n1c(NS(=O)(=O)CCc2ccc(Cl)cc2)nnc1[C@H]1CCOC1 (single isomer, unassigned) [Example 9.0, (R)-2-(4-Chlorophenyl)-N-(4-(2,6-dimethoxyphenyl)-5-(tetrahydrofuran-3-yl)-4H-1,2,4-triazol-3-yl)ethanesulfonamide or (S)-2-(4-chlorophenyl)-N-(4-(2,6-dimethoxyphenyl)-5-(tetrahydrofuran-3-yl)-4H-1,2,4-triazol-3-yl)ethanesulfonamide]  210 nM
11. COCC1(n2c(NS(=O)(=O)[C@@H](C)[C@H](OC)c3ncc(Cl)cn3)nnc2[C@H]2CCOC2)CC1 (mixture of isomers) [Example 303.0, (1R,2S)-1-(5-chloro-2-pyrimidinyl)-1-methoxy-N-(4-(1-(methoxymethyl)cyclopropyl)-5-((3R)-tetrahydro-3-furanyl)-4H-1,2,4-triazol-3-yl)-2-propanesulfonamide and (1R,2S)-1-(5-chloro-2-pyrimidinyl)-1-methoxy-N-(4-(1-(methoxymethyl)cyclopropyl)-5-((3S)-tetrahydro-3-furanyl)-4H-1,2,4-triazol-3-yl)-2-propanesulfonamide]  340 nM
12. COc1cccc(OC)c1-n1c(NS(=O)(=O)CCc2ccc(F)cc2C#N)nnc1[C@@H]1CCCO1 (mixture of isomers) [Example 146.0, (S)-2-(2-Cyano-4-fluorophenyl)-N-(4-(2,6-dimethoxyphenyl)-5-(tetrahydrofuran-2-yl)-4H-1,2,4-triazol-3-yl)ethanesulfonamide and (R)-2-(2-cyano-4-fluorophenyl)-N-(4-(2,6-dimethoxyphenyl)-5-(tetrahydrofuran-2-yl)-4H-1,2,4-triazol-3-yl)ethanesulfonamide]  450 nM
13. COc1cccc(OC)c1-n1c(NS(=O)(=O)[C@@H](C)[C@H](OC)c2ncc(C)cn2)nnc1[C@@H]1CCNC1 (mixture of isomers) [Example 45.0, (1R,2S)-N-(4-(2,6-Dimethoxyphenyl)-5-((R)-pyrrolidin-3-yl)-4H-1,2,4-triazol-3-yl)-1-methoxy-1-(5-methylpyrimidin-2-yl)propane-2-sulfonamide and (1R,2S)-N-(4-(2,6-dimethoxyphenyl)-5-((S)-pyrrolidin-3-yl)-4H-1,2,4-triazol-3-yl)-1-methoxy-1-(5-methylpyrimidin-2-yl)propane-2-sulfonamide]  510 nM
14. COc1cnc([C@@H](C)[C@H](C)S(=O)(=O)Nc2nnc([C@@H]3CC[C@H](C)O3)n2-c2c(OC)cccc2OC)nc1 (mixture of isomers) [Example 249.0, (2S,3R)-N-(4-(2,6-dimethoxyphenyl)-5-((2R,5R)-5-methyltetrahydro-2-furanyl)-4H-1,2,4-triazol-3-yl)-3-(5-methoxy-2-pyrimidinyl)-2-butanesulfonamide and (2S,3R)-N-(4-(2,6-dimethoxyphenyl)-5-((2S,5S)-5-methyltetrahydro-2-furanyl)-4H-1,2,4-triazol-3-yl)-3-(5-methoxy-2-pyrimidinyl)-2-butanesulfonamide]  540 nM
15. CO[C@H]1CCC[C@@H](OC)[C@@H]1n1c(NS(=O)(=O)[C@@H](C)[C@H](C)c2ncc(C)cn2)nnc1[C@@H]1CCCO1 (single isomer, unassigned) [Example 3.0, (2S,3R)-N-(4-((1r,2R,6S)-2,6-Dimethoxycyclohexyl)-5-((2S)-tetrahydro-2-furanyl)-4H-1,2,4-triazol-3-yl)-3-(5-methyl-2-pyrimidinyl)-2-butanesulfonamide or (2S,3R)-N-(4-((1r,2R,6S)-2,6-dimethoxycyclohexyl)-5-((2R)-tetrahydro-2-furanyl)-4H-1,2,4-triazol-3-yl)-3-(5-methyl-2-pyrimidinyl)-2-butanesulfonamide]  1200 nM
